Experiments:
tat protein [1] = test: competition filter binding assay, bulge and stem mutant TAR RNAs (FIGS. 10-17, Tables 2 and 3); parameters: species or system HIV-1; conditions: 20 nM TAR RNA, read-out: D1/2
Source text: The graphs shown in FIGS. 10 to 17 illustrate competition for tat binding between TAR RNA and various mutant TAR RNA sequences. In FIGS. 10 and 11 the region unpaired residues at positions 23, 24, 25, 23 being U, is shown to be essential for tat FIGS. 12, 13, 14, 15, 16 and 17 the base stem immediately adjacent to the U-rich bulge be required for efficient tat binding, with there being a requirement for a binding pair at residues 22 and 40 on one side of the bulge, and the base pair G26 - C39 on the other side of the bulge.
In Tables 2 and 3, D1/2 values for various mutant TAR RNA-L sequences are given along with the results of transactivation experiments in which the altered TAR RNA sequences were introduced into the CAT reporter plasmid D5-3-3. TAR RNA sequences which bind poorly are poor competitors and show increased values for D1/2.
Competitor RNA was produced by transcription as described in the method ---or FIG. 7. Binding reactions (500ul) contained 20 nM TAR RNA, 20,000 dpm ^32 P- labeled TAR RNA, 0.5 ug calf thymus DNA, 0.2 ug yeast tRNA, 40 Units RNAsin (Promega), 50 mM Tris-HCl pH7.5, 20 mM KCl in a final volume of 500 ul. […] The binding reaction mixtures were then filtered through pre-washed nitrocellulose filters (Millipore 0.45 u pore size) and the radioactivity retained on the filters assayed by liquid scintillation counting of the dried filters.

tat protein [2] = test: competition filter binding assay with chemically synthesized RNA (Table 4); parameters: species or system HIV-1; conditions: for IC50: 40 nM tat, read-out: D1/2
Protocol: Competition binding reactions (0.5ml) in TK buffer (50 mM Tris.HCl(pH7.9 at 0.5M and 22° G), 20 mM KCl ) included 10nM ^32 p labeled 59-mer (ca. 20,000 cpm) , 40nM tat protein, 5 ug/ml calf thymus DNA, 2 ug/ml yeast tRNA, 40 units of RNAsin (Promega) and varying concentrations (0-300 nM) of unlabeled competitor RNA (59-mer [SEQ ID NO: 1; ], 29-mer [SEQ ID NO: 12] or preannealed (slow cooled from 90° C.) 14-mer [SEQ ID NO: 14; nucleotides 2-15] and 17-mer [SEQ ID NO: 13; nucleotides 1- 17]). Binding was allowed to take place for 2-15 minutes on ice and each reaction was filtered through a twice prewashed (0.6 ml of ice-cold TK buffer) Millipore GS filter (2.5 cm disks, 0.22 um pore) and the filter washed with TK buffer (0.6 ml). Dried filters were counted by liquid scintillation. Results were plotted on a graph (FIG. 19) showing counts retained on the filter versus the concentration of competitor RNA added.
Competition binding reactions (0.5 ml) in TK buffer included 10 nM duplex formed from ^32 P-labeled and unlabeled 29-mer (ca. 20,000 cpm) or 10 nM duplex formed from ^32 P-labeled and unlabeled 17-mer annealed to unlabeled 14-mer, 40 nM tat protein, 5 ug/ml calf thymus DNA, 2 ug/ml yeast tRNA and varying concentrations (0-120 nM) of unlabeled competitor RNA (29-mer or modified 29-mer (FIG. 21), or 17-mer +14-mer duplex or modified 7-mer +14-mer duplex (22, 23 and 24) and were carried out as described above.
Competition binding reactions (0-5 ml) in TK buffer included 10 nM duplex formed from ^32 P-labelled (ca. 20,000 cpm) and unlabelled 18-mer [SEQ ID NO: 13] annealed to unlabelled 15-mer [SEQ ID NO: 14], 40 nM tat protein, 5 ug/ml calf thymus DNA, 2 ug/ml yeast TRNA and varying concentrations (0-120 nM) of unlabelled competitor RNA (59-mer [SEQ ID NO: 1] or 18-mer [SEQ ID NO: 13]+15-mer [SEQ ID NO: 14] duplex, or modified 18-mer [SEQ ID NO: […]

Q: How did the IC50 (tat protein [1]; Table 2, mutations in the U-rich bulge) turn out when “HIV-1 TAR (UUU): full length HIV-1 TAR RNA of 59 residues prepared by transcription, wild type, UUU bulge (GGGUCUCUCUGGUUAGACCAGAUUUGAGCCUGGGAGCUCUCUGGCUAACUAGGGAACCC; unmodified RNA) [reference compound]” was run?
A: 90 nM

Q: What about the IC50 (tat protein [1]; Table 3, mutations in the stem surrounding the U-rich bulge) of the same substance?
A: 90 nM

Q: What about the “Krel (59-mer)” value (tat protein [2]; 32P-end labelled 18-mer annealed to 15-mer) of the same substance?
A: 1.0

Q: What about the IC50 (tat protein [2]; 32P-end labelled 18-mer annealed to 15-mer 10 nM, competitor 0-120 nM) of the same substance?
A: 18 nM

Q: And the “Krel (59-mer)” value (tat protein [2]; 32P-labeled 59-mer transcript 10 nM)?
A: 1.0

Q: And the IC50 (tat protein [2]; 32P-labeled 59-mer transcript 10 nM, competitor 0-300 nM)?
A: 40 nM

Q: And the “Krel (29 or 14 +17)” value (tat protein [2]; relative to 14 +17 duplex, 32P-end labelled 18-mer annealed to 15-mer)?
A: 2.8
